In brackets after ≈: the same amount, converted by molar mass.
Key:
[1] = system: Mycobacterium tuberculosis; assay: Antitubercular activity against Mycobacterium tuberculosis H37Ra ATCC 25177 after 4 days by microtiter plate alamar blue technique; format: functional, organism-based; conditions: 96 h
[2] = system: HeLa; assay: Cytotoxicity against human HeLa cells by SRB assay; format: functional, cell-based
[3] = system: HT-29; assay: Cytotoxicity against human HT29 cells by SRB assay; format: functional, cell-based
[4] = system: KB; assay: Cytotoxicity against human KB cells by SRB assay; format: functional, cell-based
[5] = system: MCF7; assay: Cytotoxicity against human MCF7 cells by SRB assay; format: functional, cell-based
[6] = system: HT-29; assay: Cytotoxicity against human HT29 cells at 10 uM by SRB assay; format: functional
[7] = system: KB; assay: Cytotoxicity against human KB cells at 10 uM by SRB assay; format: functional
[8] = system: HeLa; assay: Cytotoxicity against human HeLa cells at 10 uM by SRB assay; format: functional
[9] = system: MCF7; assay: Cytotoxicity against human MCF7 cells at 10 uM by SRB assay; format: functional
[10] = system: Mycobacterium tuberculosis; assay: Antimycobacterial activity against Mycobacterium tuberculosis H37Rv; format: functional

## CC1(C)CCC[C@]2(C)[C@H]3C[C@@H](O)[C@]4(C)[C@H]5COC(=O)C5=CC[C@H]4[C@]3(C)CC[C@@H]12
[1]
  MIC: 16 µM (≈ 6.19 µg/mL)
[2]
  IC50: 1990 nM
[3]
  IC50: 910 nM
[4]
  IC50: 750 nM
[5]
  IC50: 320 nM

## CC(=O)OCC1=CC(=O)O[C@@H]1C/C=C(\CC/C=C(\C)CCC1=C(C)CCCC1(C)C)COC(C)=O
[6]
  Activity: 80%
[1]
  MIC: 51 µM (≈ 24.8 µg/mL)
[7]
  Activity: 80%
[8]
  Activity: 80%
[5]
  IC50: 9340 nM

## CC(=O)O[C@@H]1C[C@@H]2[C@@]3(C)CCCC(C)(C)[C@@H]3CC[C@@]2(C)[C@@H]2CC=C3C(=O)OC[C@@H]3[C@@]12C
[1]
  IC50: 117000 nM
[2]
  IC50: 5490 nM
[3]
  IC50: 2340 nM
[4]
  IC50: 3010 nM

## CC(=O)O[C@@H]1OC(=O)C=C1[C@H]1CC=C(CC/C=C(\C)CCC2=C(C)CCCC2(C)C)[C@H](O)O1
[1]
  MIC: 7 µM (≈ 3.21 µg/mL)
[2]
  IC50: 1680 nM
[3]
  IC50: 760 nM
[4]
  IC50: 630 nM
[5]
  IC50: 260 nM

## CC(=O)O[C@@H]1OC(=O)C2=CC[C@H]3[C@]4(C)CC[C@H]5C(C)(C)CCC[C@]5(C)[C@H]4CC[C@]3(C)[C@H]21
[6]
  Activity: 80%
[1]
  MIC: 4 µM (≈ 1.71 µg/mL)
[7]
  Activity: 80%
[8]
  Activity: 80%
[9]
  Activity: 80%

## CC(=O)OCC1=CC(=O)O[C@@H]1C/C=C(/CC/C=C(\C)CCC1=C(C)CCCC1(C)C)COC(C)=O
[6]
  Activity: 80%
[1]
  MIC: 26 µM (≈ 12.7 µg/mL)
[7]
  Activity: 80%
[8]
  Activity: 80%
[5]
  IC50: 5990 nM

## CC(=O)O[C@@H]1OC=C2[C@@H](OC(C)=O)C[C@H]3[C@]4(C)CC[C@H]5C(C)(C)CCC[C@]5(C)[C@H]4C[C@@H](OC(C)=O)[C@]3(C)[C@H]21 [HETERONEMIN ACETATE]
[6]
  Activity: 80%
[1]
  MIC: 6 µM
[7]
  Activity: 80%
[8]
  Activity: 80%
[5]
  IC50: 6450 nM

## CC(=O)O[C@@H]1OC=C2[C@@H](OC(C)=O)C[C@H]3[C@]4(C)CC[C@H]5C(C)(C)CCC[C@]5(C)[C@H]4C[C@@H](O)[C@]3(C)[C@H]21 [HETERONEMIN]
[1]
  MIC: 3 µM (≈ 1.47 µg/mL)
[2]
  IC50: 450 nM
[10]
  MIC: 6.25 µg/mL (≈ 12.8 µM)
[3]
  IC50: 390 nM
[4]
  IC50: 370 nM
[5]
  IC50: 290 nM

## NNC(=O)c1ccncc1 [ISONIAZID]
[1]
  MIC: 0.29 µM (≈ 0.0398 µg/mL)

## NC[C@H]1O[C@H](O[C@H]2[C@H](O)[C@@H](O[C@H]3O[C@H](CO)[C@@H](O)[C@H](N)[C@H]3O)[C@H](N)C[C@@H]2N)[C@H](O)[C@@H](O)[C@@H]1O [KANAMYCIN]
[1]
  MIC: 3.5 µM (≈ 1.7 µg/mL)

From ChEMBL document CHEMBL1148934, “Antitubercular sesterterpenes from the Thai sponge Brachiaster sp” (J Nat Prod, 2004)
